Test results: patent US20260375265A1, “COMPOSITION FOR ALLEVIATING SKIN PIGMENTATION” (LG H & H CO., LTD., priority 2023, published 2026)
Where a name gives a salt, the structure may show the parent alone. Read-outs that look alike come from different tables or passages of the source.

What was measured:
TP63 = assay: qPCR of TP63 mRNA expression in UVB-irradiated HaCaT cells; format: cell-based, human; conditions: UVB 10 mJ/cm^2, appropriate concentration, FIG. 3, UVB alone increased
Description: (§1) Screening was performed for substances that influence the expression of genes associated with spot pigmentation among various substances having the skin-improving efficacy. Changes in the expression of genes associated with spot pigmentation were examined in cells where melanin synthesis was increased by a-MSH, and substances that restored the expression to the level before a-MSH treatment were selected.
(§2) To analyze the efficacy on changes in the mRNA expression of genes associated with skin spot pigmentation, mouse melanoma cells were seeded at […] cells/well in 6-well plates and cultured in a 37 °C/5% CO2 incubator for one day. After replacing the medium with a fresh medium, 10 nM α-MSH was treated, and substances were added to the medium at appropriate concentrations and cultured for one day under the same conditions. Thereafter, total RNA was obtained using AccuPrep Universal RNA Extraction Kit (Bioneer, K-3140), and cDNA was synthesized using AccuPower® RocketScript™ Cycle (Bioneer, K-2202). The expression level of each gene was analyzed by performing qPCR using synthesized cDNA and taqman probe (assay ID: ASCL2-Mm01268891_m1, PPARGC1B-Mm00504730_m1, TP63-Hs00978349_m1).
TP63 expression was increased by 10 mJ/cm^2 of UVB in human keratinocytes, HaCaT. […]

OCA2 = assay: qPCR of OCA2 mRNA expression in a-MSH-treated melanocytes (B16F10); format: cell-based, mouse; conditions: a-MSH 10 nM plus substance, 1 day, appropriate concentration; FIG. 2
Description: (§3) Screening was performed for substances that influence the expression of genes associated with dark skin tone among various substances having skin-improving efficacy. Changes in the expression of genes associated with dark skin tone were examined in cells where melanin synthesis was increased by a-MSH, and substances that restored the expression to the level before a-MSH treatment were selected.
(§4) Mouse melanoma cells (B16F10; CRL-6475) were purchased from ATCC for use. The purchased cells were cultured in a 37 °C/5% CO2 incubator using a medium prepared by supplementing Dulbecco's Modified Eagle Medium (DMEM-GIBCO) with 10% fetal bovine serum (FBS) and 1% penicillin/streptomycin.
(§5) To analyze the efficacy on changes in the mRNA expression of genes associated with dark skin tone, RT-qPCR experiment was conducted. Cells were cultured in a 37 °C/5% CO2 incubator for one day. To assess the change of KITLG expression by UVB, the medium of human keratinocytes (HaCaT) was replaced with PBS, and 30 mJ/cm^2 of UVB (312 nm) was irradiated using an RMX 3W (Vilber Lourmat) instrument. The medium was replaced with a fresh medium and cultured for one day. To assess the change in KITLG expression by treatment with substances, the cells were treated with appropriate concentrations of substances along with a fresh medium and cultured for one day. In addition, to assess the OCA2, BNC2, and RAB32 expression, melanocytes were treated with a-MSH (10 nM) and appropriate concentrations of substances in a fresh medium and cultured for 1 day. Thereafter, total RNA was obtained using AccuPrep Universal RNA Extraction Kit (Bioneer, K-3140), and cDNA was synthesized using AccuPower® RocketScript™ Cycle (Bioneer, K-2202). The expression level of each gene was analyzed by performing qPCR using synthesized cDNA and taqman probe (assay ID: OCA2-Mm00498969_m1, BNC2-Mm00556284_m1, RAB32-Mm00458960_m1, KITLG-Hs00241497_m1).

RAB32 = assay: qPCR of RAB32 mRNA expression in a-MSH-treated melanocytes (B16F10); format: cell-based, mouse; conditions: a-MSH 10 nM plus substance, 1 day, appropriate concentration; FIG. 2
Description: as §3, §4, §5

[1] = system: protein carbonylation of keratinocytes; assay: Protein carbonylation inhibition in UVA-irradiated human keratinocytes (HaCaT); format: cell-based; conditions: relative to UVA-only group, significant
Description: Previous studies have shown that skin dullness and yellowness are promoted by protein carbonylation of keratinocytes. Therefore, through a protein carbonylation assay, it was examined whether or not customized substances for dark skin tone may also improve skin dullness and yellowness.
Human keratinocytes (HaCaT) were seeded at 1×10^4 in black clear-bottom 96-well plates, and after 24 hours, treated with customized substances at appropriate concentrations. After another 24 hours, cells were irradiated with […] of UVA, washed with PBS, and then incubated with fluolescein-5-thiosemicabarzide in MES buffer for 1 hour at room temperature. After another washing with PBS, fluorescence was measured using a plate reader at an excitation of 492 nm and an emission of 562 nm. Furthermore, based on the UVA-only treatment group, the reduction in protein carbonylation by other effective substances was measured.

AKAP1 = assay: qPCR of AKAP1 mRNA expression in UVB-irradiated mouse melanoma cells; format: cell-based; conditions: B16F10, UVB 30 mJ/cm^2 (312 nm), substance one day, appropriate concentration; FIG. 1; UVB alone increased
Description: (§6) Screening was performed for substances that influence the expression of genes associated with scattered dark spots on skin among various substances having skin-improving efficacy. Changes in the expression of genes associated with scattered dark spots on skin were examined in cells where melanin synthesis was increased by UVB exposure, and substances that restored the expression to the level before UVB exposure were selected.
as §4
(§7) To analyze the efficacy on changes in the mRNA expression of genes associated with scattered dark spots on skin, mouse melanoma cells were seeded at 2*10^5 cells/well in 6-well plates and cultured in a 37 °C/5% CO2 incubator for one day. After replacing the medium with PBS, 30 mJ/cm^2 of UVB (312 nm) was irradiated using an RMX 3W (Vilber Lourmat) instrument. Substances were added to the medium at appropriate concentrations and cultured for one day under the same conditions. […] The expression level of each gene was analyzed by performing qPCR using synthesized cDNA and taqman probe (assay ID: AKAP1-Mm00501539_m1, RAB11FIP2-Mm01261268_m1, PPARGC1B-Mm00504730_m1).

[2] = system: mouse melanoma cells and human keratinocytes; assay: Inhibition of melanin production increased by a-MSH (dark skin tone); format: cell-based; conditions: Keratinocyte, 48 h, a-MSH 10 nM, two days
Description: In detail, mouse melanoma cells and human keratinocytes were seeded at […] cells/well in 6-well plates and cultured in a 37 °C/5% CO2 incubator for one day, followed by treatment with 10 nM of a-MSH. Each of media comprising appropriate concentrations and combinations of substances was added and cultured again in a 37 °C/5% CO2 incubator for two days to determine whether the substances inhibited the melanin production increased by a-MSH. Cells attached to the plates were collected in PBS and centrifuged to obtain cell pellets. The cell pellets were visually inspected and photographed. The cell pellets were dissolved in a 1 N NaOH (sodium hydroxide) solution comprising 10% dimethyl sulfoxide (DMSO) at 80 °C for 10 minutes, and placed in a 96-well plate, and absorbance at 405 nm was measured using an Epoch (Biotek) instrument. Melanin was quantified using the measured absorbance and normalized to the sample protein concentration to determine melanin concentration. The inhibition rate of melanin production of the sample was calculated as a ratio of the melanin concentration of the sample treatment group with respect to the melanin concentration increased by a-MSH treatment.
E1=(X+Y)−(XY+XZ+YZ/100)+XYZ/10000 Colby equation
E2=X+Y−(XY/100) Colby equation

BNC2 = assay: qPCR of BNC2 mRNA expression in a-MSH-treated melanocytes (B16F10); format: cell-based, mouse; conditions: a-MSH 10 nM plus substance, 1 day, appropriate concentration; FIG. 2
Description: as §3, §4, §5

PPARGC1B [3] = assay: qPCR of PPARGC1B mRNA expression in a-MSH-treated B16F10 cells; format: cell-based, mouse; conditions: B16F10, 10 nM a-MSH plus substance, one day, appropriate concentration; FIG. 3
Description: as §1, §4, §2

PPARGC1B [4] = assay: qPCR of PPARGC1B mRNA expression in UVB-irradiated mouse melanoma cells; format: cell-based; conditions: B16F10, UVB 30 mJ/cm^2 (312 nm), substance one day, appropriate concentration; FIG. 1; UVB alone decreased
Description: as §6, §4
To analyze the efficacy on changes in the mRNA expression of genes associated with scattered dark spots on skin, mouse melanoma cells were seeded at 2*10^5 cells/well in 6-well plates and cultured in a 37 °C/5% CO2 incubator for one day. After replacing the medium with PBS, 30 mJ/cm^2 of UVB (312 nm) was irradiated using an RMX 3W (Vilber Lourmat) instrument. Substances were added to the medium at appropriate concentrations and cultured for one day under the same conditions. Thereafter, total RNA was obtained using AccuPrep Universal RNA Extraction Kit (Bioneer, K-3140), and cDNA was synthesized using AccuPower® RocketScript Cycle (Bioneer, K-2202). The expression level of each gene was analyzed by performing qPCR using synthesized cDNA and taqman probe (assay ID: AKAP1-Mm00501539_m1, RAB11FIP2-Mm01261268_m1, PPARGC1B-Mm00504730_m1).

RAB11FIP2 = assay: qPCR of RAB11FIP2 mRNA expression in UVB-irradiated mouse melanoma cells; format: cell-based; conditions: B16F10, UVB 30 mJ/cm^2 (312 nm), substance one day, appropriate concentration; FIG. 1; UVB alone decreased
Description: as §6, §4, §7

With `CC(=O)C(=O)[O-].[Na+]` [sodium pyruvate] the “change of TP63 expression” value (TP63) was “decreased”.
For gamma oryzanol, the “change of OCA2 expression” value (OCA2) was “decreasing”, the “change of RAB32 expression” value (RAB32) was “decreasing” and the “reduction in protein carbonylation” value ([1]; 2.5 ppm, FIG. 9) was 39%.
In the case of `NCCS` [cysteamine HCl], the “change of AKAP1 expression” value (AKAP1) is reported as “decreasing”.
`CC(C)CCCCCCCCCCCCCCC(=O)O` [isostearic acid] was tested, and the “change of OCA2 expression” value (OCA2) was “decreasing” and the inhibition at 50 ppm ([1]; Homo sapiens, light or radiation study, 50 ppm, FIG. 9, read-out: reduction in protein carbonylation) was 31%.
For `NC[C@H]1CC[C@H](C(=O)O)CC1` [tranexamic acid, trans-4-(aminomethyl)cyclohexanecarboxylic acid, reference compound], the “change of OCA2 expression” value (OCA2) was “decreasing”.
In the case of `O=c1c(O)c(-c2ccc(O)c(O)c2)oc2cc(O)cc(O)c12` [quercetin], the “change of OCA2 expression” value (OCA2) is reported as “decreasing”, the “change of RAB32 expression” value (RAB32) is reported as “decreasing” and the inhibition at 20 ppm ([2]; 20 ppm quercetin, FIG. 6, read-out: reduction of melanin production) is reported as ~33.9%.
For `N[C@@H](CS)C(=O)O` [cysteine], the “change of AKAP1 expression” value (AKAP1) was “decreasing”.
`C=C[C@@](C)(/C=C/c1ccc(O)cc1)CCC=C(C)C` [bakuchiol] was tested, and the “change of BNC2 expression” value (BNC2) was “decreasing” and the inhibition at 5 ppm ([2]; 5 ppm, FIG. 5, read-out: reduction of melanin production (Y, Z)) was ~2.07%.
For `CCOC1=C(O)C(=O)O[C@@H]1[C@@H](O)CO` [3-O-ethyl ascorbic acid], the “change of PPARGC1B expression” value (PPARGC1B [3]) was “increased”.
For `O=C1O[C@H](CO)[C@@H](O)[C@H](O)[C@H]1O` [gluconolactone, glucono-delta-lactone], the “change of PPARGC1B expression” value (PPARGC1B [4]) was “increased”.
`COc1cc(/C=C/C(=O)O)ccc1O` [ferulic acid, 4-hydroxy-3-methoxycinnamic acid] was tested, and the “change of OCA2 expression” value (OCA2) was “decreasing”, the “change of BNC2 expression” value (BNC2) was “decreasing” and the “change of RAB32 expression” value (RAB32) was “decreasing”. The inhibition at 10 ppm ([2]; 10 ppm, FIG. 5, read-out: reduction of melanin production (X)) was ~5.04%.
For `O=C(O)CO` [glycolic acid], the “change of PPARGC1B expression” value (PPARGC1B [4]) was “increased”.
`OC[C@H]1O[C@@H](Oc2cc(O)cc(/C=C/c3ccc(O)cc3)c2)[C@H](O)[C@@H](O)[C@@H]1O` [polydatin, 3,4′,5-trihydroxystilbene-3-mono-D glucoside] was tested, and the “change of OCA2 expression” value (OCA2) was “decreasing”, the “change of BNC2 expression” value (BNC2) was “decreasing” and the “change of RAB32 expression” value (RAB32) was “decreasing”. The inhibition at 10 ppm ([2]; 10 ppm polydatin, FIG. 6, read-out: reduction of melanin production) was ~23.8%.
`O=c1c(-c2ccc(O)cc2)coc2cc(O)cc(O)c12` [genistein] was tested, and the “change of OCA2 expression” value (OCA2) was “decreasing”, the “change of BNC2 expression” value (BNC2) was “decreasing” and the “change of RAB32 expression” value (RAB32) was “decreasing”.
`O=C1O[C@H]([C@@H](O)CO)C(O)=C1O[C@H]1O[C@H](CO)[C@@H](O)[C@H](O)[C@H]1O` [ascorbyl glucoside] was tested, and the “change of PPARGC1B expression” value (PPARGC1B [3]) was “increased”.
With `CC(C)=CCC[C@](C)(O)[C@@H]1CC=C(C)CC1` [bisabolol, 6-methyl-2-(4-methylcyclohex-3-en-1-yl)hept-5-en-2-ol] the “change of RAB11FIP2 expression” value (RAB11FIP2) was “increasing”.
`C[C@H]1[C@H](C)CC[C@]2(C(=O)O[C@@H]3O[C@H](CO[C@@H]4O[C@H](CO)[C@@H](O[C@@H]5O[C@@H](C)[C@H](O)[C@@H](O)[C@H]5O)[C@H](O)[C@H]4O)[C@@H](O)[C@H](O)[C@H]3O)CC[C@]3(C)C(=CC[C@@H]4[C@@]5(C)C[C@@H](O)[C@H](O)[C@@](C)(CO)[C@@H]5CC[C@]43C)[C@H]12` [asiaticoside] was tested, and the “change of TP63 expression” value (TP63) was “decreased”.
